Test results: patent US8871679B2, “Fungicidal mixtures comprising substituted 1-methylpyrazol-4-ylcarboxanilides” (BASF SE, priority 2008, dated 2014)
Where two headings read alike, the source gives them in different places.

How the values were obtained:
Format in all cases: cell-based
[1] = system: Pyricularia oryzae
[2] = system: Alternaria solani; experiment: Microtiter test, activity against Alternaria solani (Use Example 4); settings: 7 days
[3] = system: Septoria tritici; experiment: Microtiter test, activity against leaf blotch on wheat caused by Septoria tritici (Use Example 3); settings: for inhibition of growth at 4 ppm / inhibition of growth at 16 ppm / inhibition of growth at 63 ppm: Zymoseptoria tritici, 168 h, read-out: Observed efficacy
[4] = system: Colletotrichum truncatum; experiment: Microtiter test, activity against Colletotrichum truncatum (Use Example 5); settings: compound alone, 7 days
[5] = system: Leptosphaerium nodorum; experiment: Microtiter test, activity against Leptospharium nodorum (Use Example 6); settings: compound alone, 7 days
[6] = system: Fusarium culmorum; experiment: Microtiter test, activity against Fusarium culmorum (Use Example 7); settings: compound alone, 7 days
[7] = Alternaria solani, 168 h, read-out: Observed efficacy
[8] = 0.25 ppm, compound alone, day 7
[9] = Alternaria solani, 168 h, 63 ppm, compound alone, read-out: Observed efficacy
[10] = 0.016 ppm, compound alone, day 7

In the case of `CC(C)([CH2][Sn]([CH2]C(C)(C)c1ccccc1)([CH2]C(C)(C)c1ccccc1)[O][Sn]([CH2]C(C)(C)c1ccccc1)([CH2]C(C)(C)c1ccccc1)[CH2]C(C)(C)c1ccccc1)c1ccccc1` [Fenbutadin-oxyd, fenbutatin oxide], the Observed efficacy [1] is reported as 39%.
`COP(N)(=O)SC` (centres unmarked) [Methamidophos, methamidophos] showed an inhibition of growth at 1 ppm [2, 7] of 8%, an inhibition of growth at 63 ppm [2, 7] of 0% and an inhibition of growth at 4 ppm [3] of 5%.
`CCOP(=S)(OCC)SCSC(C)(C)C` [Terbufos, terbufos] was tested, and the inhibition of growth at 16 ppm [3] was 14%.
With `Cc1nn(C)c(F)c1C(=O)Nc1ccccc1C(C)CC(C)C` (centres unmarked) [Penflufen, N-[2-(1,3-dimethylbutyl)-phenyl]-1,3-dimethyl-5-fluor-1H-pyrazole-4-carboxamide] the Observed efficacy [2] was 0%, the Observed efficacy [1, 8] was 5% and the Observed efficacy [3] was 44%.
With `Cc1cc(C(F)(C(F)(F)F)C(F)(F)F)ccc1NC(=O)c1cccc(I)c1C(=O)NC(C)(C)CS(C)(=O)=O` [Flubendiamid, flubendiamide] the inhibition of growth at 63 ppm [2, 9] was 0%, the Observed efficacy ([1]; 4 ppm, compound alone, day 7) was 0% and the Observed efficacy ([1]; 63 ppm, compound alone, day 7) was 15%. It also gave an Observed efficacy ([4]; 63 ppm) of 0%, an Observed efficacy ([5]; 63 ppm) of 22% and an Observed efficacy ([6]; 63 ppm) of 3%. For the same compound, the inhibition of growth at 63 ppm ([3]; 63 ppm, compound alone, day 7) was 37%.
With `CC1(C)[C@H](C(=O)O[C@H](C#N)c2cccc(Oc3ccccc3)c2)[C@@H]1/C=C(\Cl)C(F)(F)F` (racemic) [lambda-Cyalothrin, lambda-cyhalothrin] the inhibition of growth at 16 ppm ([3]; 16 ppm, compound alone, day 7) was 10% and the inhibition of growth at 63 ppm ([3]; 63 ppm, compound alone, day 7) was 29%.
Compound `CC1(C)[C@H](C(=O)O[C@H](C#N)c2cccc(Oc3ccccc3)c2)[C@@H]1C=C(Br)Br` [Deltamethrin, deltamethrin] has an inhibition of growth at 1 ppm [2, 7] of 0%, an inhibition of growth at 4 ppm [2, 7] of 5% and an inhibition of growth at 16 ppm [2, 7] of 0%. It also gave an Observed efficacy ([1]; 4 ppm, compound alone, day 7) of 0%, an inhibition of growth at 16 ppm [3] of 0% and an inhibition of growth at 63 ppm [3] of 3%.
`Cc1c(COC(=O)[C@@H]2[C@H](/C=C(\Cl)C(F)(F)F)C2(C)C)cccc1-c1ccccc1` (racemic) [Bifenthrin, bifenthrin] showed an inhibition of growth at 63 ppm [2, 9] of 1%.
For `CC1(C)CNC(=NN=C(/C=C/c2ccc(C(F)(F)F)cc2)/C=C/c2ccc(C(F)(F)F)cc2)NC1` [Hydramethylnon, hydramethylnon], the inhibition of growth at 1 ppm [2, 7] was 7%, the Observed efficacy ([1]; 4 ppm, compound alone, day 7) was 5% and the inhibition of growth at 16 ppm [3] was 0%. It also gave an inhibition of growth at 63 ppm [3] of 4%.
In the case of `O=S1OCC2C(CO1)C1(Cl)C(Cl)=C(Cl)C2(Cl)C1(Cl)Cl` (centres unmarked) [Endosulfan, endosulfan], the inhibition of growth at 16 ppm [2, 7] is reported as 13%, the Observed efficacy ([1]; 16 ppm, compound alone, day 7) is reported as 22% and the Observed efficacy ([1]; 63 ppm, compound alone, day 7) is reported as 73%. It also gave an Observed efficacy ([4]; 63 ppm) of 8%, an Observed efficacy ([5]; 63 ppm) of 5% and an inhibition of growth at 16 ppm [3] of 3%. For the same compound, the inhibition of growth at 63 ppm [3] was 26%.
Work on `Cn1cc(C(=O)Nc2ccc(F)cc2-c2ccc(Cl)c(Cl)c2)c(C(F)F)n1` [Bixafen, bixafen] yielded an Observed efficacy [2] of 0%, an Observed efficacy ([1]; 0.063 ppm, compound alone, day 7) of 6% and an Observed efficacy [1, 8] of 6%. For the same compound, the Observed efficacy ([4]; 0.25 ppm) was 6%, the Observed efficacy ([5]; 0.25 ppm) was 16% and the Observed efficacy [3] was 48%.
Compound `CC1(C)C(C=C(Cl)Cl)C1C(=O)OC(C#N)c1cccc(Oc2ccccc2)c1` (stereo not drawn) [alpha-Cypermethrin, alpha-cypermethrin] has an inhibition of growth at 63 ppm [2, 7] of 0% and an Observed efficacy ([1]; 63 ppm, compound alone, day 7) of 41%.
`COC(=O)N(C(=O)N1CO[C@@]2(C(=O)OC)Cc3cc(Cl)ccc3C2=N1)c1ccc(OC(F)(F)F)cc1` [Indoxacarb, indoxacarb] was tested, and the Observed efficacy ([2]; 16 ppm, compound alone) was 0%, the Observed efficacy ([1]; 1 ppm, compound alone, day 7) was 0% and the Observed efficacy ([3]; 16 ppm, compound alone, day 7) was 9%. It also gave an Observed efficacy ([3]; 63 ppm, compound alone, day 7) of 19%.
`Cn1cc(C(=O)Nc2ccccc2C2CC2C2CC2)c(C(F)F)n1` (single isomer, unassigned) [Sedaxane (trans diastereoisomer), N-(trans-2-bicycloprop-2-ylphenyl)-3-difluoromethyl-1-methyl-1H-pyrazole-4-carboxamide] gave an Observed efficacy ([2]; 0.063 ppm, compound alone) of 0%, an Observed efficacy ([2]; 0.25 ppm, compound alone) of 20% and an Observed efficacy [1, 10] of 1%. For the same compound, the Observed efficacy ([4]; 0.25 ppm) was 3%, the Observed efficacy ([5]; 0.25 ppm) was 17% and the Observed efficacy ([6]; 0.25 ppm) was 2%. The Observed efficacy [3, 8] was 57%.
For `CNC(=O)CSP(=S)(OC)OC` [Dimethoate, dimethoate], the inhibition of growth at 4 ppm [3] was 2%.
Work on `COP(=O)(NC(C)=O)SC` (centres unmarked) [Acephate, acephate] yielded an inhibition of growth at 1 ppm [2, 7] of 3% and an inhibition of growth at 4 ppm [3] of 2%.
In the case of `CCOCn1c(-c2ccc(Cl)cc2)c(C#N)c(Br)c1C(F)(F)F` [Chlorfenapyr, chlorfenapyr], the Observed efficacy ([1]; 4 ppm, compound alone, day 7) is reported as 17%, the Observed efficacy ([1]; 63 ppm, compound alone, day 7) is reported as 38% and the Observed efficacy ([5]; 63 ppm) is reported as 8%. The inhibition of growth at 16 ppm ([3]; 16 ppm, compound alone, day 7) was 8%.
abamectin was tested, and the Observed efficacy ([2]; 1 ppm, compound alone) was 2%.
Compound `Cn1cc(C(=O)Nc2ccccc2-c2cc(F)c(F)c(F)c2)c(C(F)F)n1` [Ia, N-(3′,4′,5′-trifluorobiphenyl-2-yl)-3-difluoro-methyl-1-methyl-1H-pyrazole-4-carboxamide] has an Observed efficacy [2] of 29%, an Observed efficacy ([1]; 0.004 ppm, compound alone, day 7) of 3% and an Observed efficacy [3] of 29%.
For `CC(C)C1C2CCC1c1c(NC(=O)c3cn(C)nc3C(F)F)cccc12` (centres unmarked) [Isopyrazam, isopyrazam], the Observed efficacy [2] was 2%, the Observed efficacy [1, 10] was 15% and the Observed efficacy ([4]; 0.25 ppm) was 14%. It also gave an Observed efficacy ([5]; 0.25 ppm) of 13% and an Observed efficacy [3] of 58%.
For `CNC(=O)O/N=C/C(C)(C)SC` [Aldicarb, aldicarb], the inhibition of growth at 16 ppm [3] was 7%.
